Source: patent US9393316B2, “Cancer targeting peptides for enhancing anti-cancer drug delivery and therapeutic efficiencies” (priority 2014, dated 2016)

Test system: HCT116 xenografts
Test: In vivo peptide competitive inhibition of phage tumor homing
Design: species or system mice
Details: co-injected with corresponding phage clone
Method: Non-obese diabetic-severe combined immunodeficiency (NOD/SCID) mice were injected subcutaneously (s.c.) into the dorsolateral flank with 5×10^6 HCT116 cells. When the xenograft tumor size reached 300±50 mm^3, the mice were injected intravascularly (i.v.) with 2×10^11 pfu of the targeting phage or control phage M13KO7. Seven min after injection, the mice were sacrificed and perfused through the heart with 50 mL of PBS to wash unbound phages. After perfusion, xenograft tumor and mouse organs were taken out, washed three times with cold PBS, and cut into pans, with some of them homogenized. The phages bound to each tissue sample were recovered by log-phase Escherichia coli ER2738 culture and were titered on LB/IPTG/X-Gal agar plates. In peptide competitive inhibition experiments, 2×10^9 pfu of phage was co-injected with 100 μg of corresponding peptide or an unrelated control peptide.
The tumor-homing ability of HCT63, HCT69 and HCT74 phages were further confirmed by peptide competitive inhibition experiment. Mice bearing HCT116 xenografts were co-injected with HCT63, HCT69 and HCT74 phages clones and the homologous cognate synthetic peptide; pHCT63, pHCT69 and pHCT74 peptides (SEQ ID NOs: 1-3, respectively), respectively.

Sequence | inhibition of phage recovery from tumor tissue by cognate peptide
SSMDIVLRAPLM (HCT-74) [pHCT74] | markedly inhibited the recovery of phage particles from tumor tissue
TSVSIVSTVLTP (HCT-69) [pHCT69] | markedly inhibited the recovery of phage particles from tumor tissue
